From ChEMBL document CHEMBL1938371, “Discovery of AZD2932, a new Quinazoline Ether Inhibitor with high affinity for VEGFR-2 and PDGFR tyrosine kinases” (Bioorg Med Chem Lett, 2012)
Calls of active or inactive are those of the source. The calls are words filed in the database; no cut-off is given here.

Columns and labels:
Aurora kinase B = Aurora kinase B (Homo sapiens, UniProt Q96GD4); assay: Inhibition of aurora-B
[1] = Oral bioavailability in rat; type: ADME, organism-based; conditions: in vivo
[2] = molecular target: Platelet-derived growth factor receptor beta (Homo sapiens, UniProt P09619); assay: Inhibition of PDGFRbeta phosphorylation by cell based assay
[3] = Chemical stability of the compound at pH 1; type: physicochemical; conditions: buffer
[4] = molecular target: Platelet-derived growth factor receptor alpha (Homo sapiens) (UniProt P16234); assay: Inhibition of PDGFRalpha phosphorylation by cell based assay
[5] = molecular target: Macrophage colony-stimulating factor 1 receptor (Homo sapiens, UniProt P07333); assay: Inhibition of CSF1R phosphorylation by cell based assay
[6] = molecular target: Vascular endothelial growth factor receptor 2 (Homo sapiens) (UniProt P35968); assay: Inhibition of VEGFR2 phosphorylation by cell based assay
[7] = molecular target: T1, Receptor-type tyrosine-protein kinase FLT3 (Homo sapiens, UniProt P36888); assay: Inhibition of FLT3 phosphorylation by cell based assay
T1 sequence (P36888 whole entry): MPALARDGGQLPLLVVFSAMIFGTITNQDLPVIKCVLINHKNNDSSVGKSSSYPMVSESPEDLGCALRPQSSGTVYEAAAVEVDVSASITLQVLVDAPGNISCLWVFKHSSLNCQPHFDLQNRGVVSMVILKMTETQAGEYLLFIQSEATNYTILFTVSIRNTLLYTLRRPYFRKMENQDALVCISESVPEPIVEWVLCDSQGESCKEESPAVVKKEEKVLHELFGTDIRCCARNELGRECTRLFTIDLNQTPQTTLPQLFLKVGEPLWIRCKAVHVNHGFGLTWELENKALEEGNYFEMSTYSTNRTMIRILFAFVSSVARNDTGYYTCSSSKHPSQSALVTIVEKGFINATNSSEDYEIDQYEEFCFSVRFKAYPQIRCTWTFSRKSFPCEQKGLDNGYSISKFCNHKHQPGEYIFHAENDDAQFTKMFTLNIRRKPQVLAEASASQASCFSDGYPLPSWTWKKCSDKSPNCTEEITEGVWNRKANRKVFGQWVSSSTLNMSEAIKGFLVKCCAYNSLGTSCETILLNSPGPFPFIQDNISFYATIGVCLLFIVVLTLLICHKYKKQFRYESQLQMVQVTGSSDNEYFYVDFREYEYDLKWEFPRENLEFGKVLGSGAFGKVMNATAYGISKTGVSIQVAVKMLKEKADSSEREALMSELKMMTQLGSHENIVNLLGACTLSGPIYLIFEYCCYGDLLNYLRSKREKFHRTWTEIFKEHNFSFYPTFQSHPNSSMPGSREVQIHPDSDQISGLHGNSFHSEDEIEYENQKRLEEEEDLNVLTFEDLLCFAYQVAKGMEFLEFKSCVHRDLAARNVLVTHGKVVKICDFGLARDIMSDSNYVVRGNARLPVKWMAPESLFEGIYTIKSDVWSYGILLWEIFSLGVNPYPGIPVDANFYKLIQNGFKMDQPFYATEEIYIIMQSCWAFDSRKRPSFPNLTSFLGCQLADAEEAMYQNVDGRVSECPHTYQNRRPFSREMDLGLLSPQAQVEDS

[8] = molecular target: Mast/stem cell growth factor receptor Kit (Homo sapiens) (UniProt P10721); assay: Inhibition of c-Kit
Chain of Mast/stem cell growth factor receptor Kit (Homo sapiens) (P10721 whole entry): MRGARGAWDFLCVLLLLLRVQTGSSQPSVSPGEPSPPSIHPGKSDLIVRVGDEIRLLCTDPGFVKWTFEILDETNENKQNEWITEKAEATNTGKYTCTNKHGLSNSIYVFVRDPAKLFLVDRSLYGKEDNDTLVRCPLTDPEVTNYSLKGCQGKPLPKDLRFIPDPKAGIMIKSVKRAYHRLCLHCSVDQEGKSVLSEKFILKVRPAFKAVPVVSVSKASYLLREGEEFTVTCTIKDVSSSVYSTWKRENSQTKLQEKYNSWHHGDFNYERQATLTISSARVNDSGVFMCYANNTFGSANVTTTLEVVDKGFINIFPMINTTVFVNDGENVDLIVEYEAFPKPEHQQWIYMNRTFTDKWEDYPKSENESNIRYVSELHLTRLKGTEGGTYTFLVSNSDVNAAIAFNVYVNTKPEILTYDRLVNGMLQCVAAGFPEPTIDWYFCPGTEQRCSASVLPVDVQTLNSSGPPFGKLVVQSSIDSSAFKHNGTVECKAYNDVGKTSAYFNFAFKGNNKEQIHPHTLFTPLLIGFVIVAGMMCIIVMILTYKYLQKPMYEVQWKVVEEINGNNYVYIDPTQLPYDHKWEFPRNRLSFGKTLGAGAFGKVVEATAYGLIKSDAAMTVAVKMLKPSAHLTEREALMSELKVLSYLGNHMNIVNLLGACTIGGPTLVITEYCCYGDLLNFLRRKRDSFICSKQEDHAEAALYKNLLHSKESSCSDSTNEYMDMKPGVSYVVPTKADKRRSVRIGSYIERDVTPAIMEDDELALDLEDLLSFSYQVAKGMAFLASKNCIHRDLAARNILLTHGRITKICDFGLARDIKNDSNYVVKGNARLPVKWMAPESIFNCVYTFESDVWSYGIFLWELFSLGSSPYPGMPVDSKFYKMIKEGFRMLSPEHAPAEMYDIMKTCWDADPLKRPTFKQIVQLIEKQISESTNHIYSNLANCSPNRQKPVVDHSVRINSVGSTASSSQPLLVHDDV

Chain of Aurora kinase B (Q96GD4 whole entry): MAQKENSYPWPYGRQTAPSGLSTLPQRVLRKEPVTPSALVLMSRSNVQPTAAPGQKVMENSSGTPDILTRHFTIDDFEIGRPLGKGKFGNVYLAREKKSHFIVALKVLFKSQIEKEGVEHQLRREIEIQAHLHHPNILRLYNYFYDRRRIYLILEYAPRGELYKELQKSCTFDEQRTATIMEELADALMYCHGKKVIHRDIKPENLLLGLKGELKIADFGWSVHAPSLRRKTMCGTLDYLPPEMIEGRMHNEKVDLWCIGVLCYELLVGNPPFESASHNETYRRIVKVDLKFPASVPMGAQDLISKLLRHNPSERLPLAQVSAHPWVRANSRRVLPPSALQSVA
Chain of Platelet-derived growth factor receptor beta (P09619 whole entry): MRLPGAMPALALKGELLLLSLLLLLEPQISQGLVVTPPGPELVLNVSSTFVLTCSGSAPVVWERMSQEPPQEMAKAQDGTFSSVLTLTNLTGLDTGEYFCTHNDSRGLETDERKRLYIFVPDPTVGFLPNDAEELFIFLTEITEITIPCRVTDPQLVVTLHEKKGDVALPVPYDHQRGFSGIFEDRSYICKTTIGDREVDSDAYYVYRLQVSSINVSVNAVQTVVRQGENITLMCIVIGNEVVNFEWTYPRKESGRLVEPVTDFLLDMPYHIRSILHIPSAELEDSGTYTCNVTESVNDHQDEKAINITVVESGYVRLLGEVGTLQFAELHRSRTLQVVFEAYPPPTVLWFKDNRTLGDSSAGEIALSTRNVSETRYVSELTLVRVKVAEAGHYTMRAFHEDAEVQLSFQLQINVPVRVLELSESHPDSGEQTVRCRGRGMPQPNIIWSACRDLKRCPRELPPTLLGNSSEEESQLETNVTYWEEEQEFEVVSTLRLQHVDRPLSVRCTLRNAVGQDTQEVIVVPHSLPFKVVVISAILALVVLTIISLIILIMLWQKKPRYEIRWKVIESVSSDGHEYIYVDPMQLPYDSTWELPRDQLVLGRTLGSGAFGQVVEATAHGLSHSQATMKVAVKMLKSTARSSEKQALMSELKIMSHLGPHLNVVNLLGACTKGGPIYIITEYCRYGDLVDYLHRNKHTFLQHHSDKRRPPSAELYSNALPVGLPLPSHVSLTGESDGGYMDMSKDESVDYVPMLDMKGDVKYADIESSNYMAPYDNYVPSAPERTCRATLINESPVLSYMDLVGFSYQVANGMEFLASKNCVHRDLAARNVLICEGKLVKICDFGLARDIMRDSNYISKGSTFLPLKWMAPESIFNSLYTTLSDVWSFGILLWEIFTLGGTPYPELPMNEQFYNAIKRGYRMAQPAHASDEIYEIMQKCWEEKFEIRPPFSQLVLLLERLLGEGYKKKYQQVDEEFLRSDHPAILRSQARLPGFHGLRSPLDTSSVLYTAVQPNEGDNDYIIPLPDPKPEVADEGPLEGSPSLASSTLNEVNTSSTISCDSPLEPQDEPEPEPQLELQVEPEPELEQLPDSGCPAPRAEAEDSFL
Chain of Platelet-derived growth factor receptor alpha (Homo sapiens) (P16234 whole entry): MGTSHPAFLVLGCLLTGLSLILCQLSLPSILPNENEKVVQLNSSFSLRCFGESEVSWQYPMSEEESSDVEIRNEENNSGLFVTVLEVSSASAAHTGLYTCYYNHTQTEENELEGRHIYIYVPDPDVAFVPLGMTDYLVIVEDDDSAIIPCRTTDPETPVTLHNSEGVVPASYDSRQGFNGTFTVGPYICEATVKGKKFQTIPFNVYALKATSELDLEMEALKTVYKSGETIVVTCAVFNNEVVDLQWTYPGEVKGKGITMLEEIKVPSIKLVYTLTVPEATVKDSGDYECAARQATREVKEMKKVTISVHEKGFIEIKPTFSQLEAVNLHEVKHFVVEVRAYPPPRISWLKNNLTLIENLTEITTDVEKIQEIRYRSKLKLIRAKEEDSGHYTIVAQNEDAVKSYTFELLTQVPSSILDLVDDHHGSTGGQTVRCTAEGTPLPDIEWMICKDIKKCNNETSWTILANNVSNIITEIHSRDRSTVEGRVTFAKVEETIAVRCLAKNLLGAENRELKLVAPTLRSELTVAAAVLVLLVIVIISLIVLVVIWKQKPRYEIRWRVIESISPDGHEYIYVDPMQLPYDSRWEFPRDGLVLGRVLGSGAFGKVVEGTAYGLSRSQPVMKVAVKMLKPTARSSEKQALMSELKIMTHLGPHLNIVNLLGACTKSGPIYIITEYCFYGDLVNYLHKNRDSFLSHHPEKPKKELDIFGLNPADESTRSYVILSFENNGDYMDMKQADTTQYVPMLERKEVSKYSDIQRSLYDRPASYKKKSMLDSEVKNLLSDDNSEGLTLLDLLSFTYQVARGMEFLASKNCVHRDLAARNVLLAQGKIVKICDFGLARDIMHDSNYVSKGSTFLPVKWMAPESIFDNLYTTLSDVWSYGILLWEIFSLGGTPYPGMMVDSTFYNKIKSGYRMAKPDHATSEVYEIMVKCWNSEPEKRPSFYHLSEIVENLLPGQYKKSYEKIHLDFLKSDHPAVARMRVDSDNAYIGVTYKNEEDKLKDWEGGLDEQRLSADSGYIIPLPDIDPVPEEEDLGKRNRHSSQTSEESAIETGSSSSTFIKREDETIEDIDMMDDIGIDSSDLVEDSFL
Chain of Macrophage colony-stimulating factor 1 receptor (P07333 whole entry): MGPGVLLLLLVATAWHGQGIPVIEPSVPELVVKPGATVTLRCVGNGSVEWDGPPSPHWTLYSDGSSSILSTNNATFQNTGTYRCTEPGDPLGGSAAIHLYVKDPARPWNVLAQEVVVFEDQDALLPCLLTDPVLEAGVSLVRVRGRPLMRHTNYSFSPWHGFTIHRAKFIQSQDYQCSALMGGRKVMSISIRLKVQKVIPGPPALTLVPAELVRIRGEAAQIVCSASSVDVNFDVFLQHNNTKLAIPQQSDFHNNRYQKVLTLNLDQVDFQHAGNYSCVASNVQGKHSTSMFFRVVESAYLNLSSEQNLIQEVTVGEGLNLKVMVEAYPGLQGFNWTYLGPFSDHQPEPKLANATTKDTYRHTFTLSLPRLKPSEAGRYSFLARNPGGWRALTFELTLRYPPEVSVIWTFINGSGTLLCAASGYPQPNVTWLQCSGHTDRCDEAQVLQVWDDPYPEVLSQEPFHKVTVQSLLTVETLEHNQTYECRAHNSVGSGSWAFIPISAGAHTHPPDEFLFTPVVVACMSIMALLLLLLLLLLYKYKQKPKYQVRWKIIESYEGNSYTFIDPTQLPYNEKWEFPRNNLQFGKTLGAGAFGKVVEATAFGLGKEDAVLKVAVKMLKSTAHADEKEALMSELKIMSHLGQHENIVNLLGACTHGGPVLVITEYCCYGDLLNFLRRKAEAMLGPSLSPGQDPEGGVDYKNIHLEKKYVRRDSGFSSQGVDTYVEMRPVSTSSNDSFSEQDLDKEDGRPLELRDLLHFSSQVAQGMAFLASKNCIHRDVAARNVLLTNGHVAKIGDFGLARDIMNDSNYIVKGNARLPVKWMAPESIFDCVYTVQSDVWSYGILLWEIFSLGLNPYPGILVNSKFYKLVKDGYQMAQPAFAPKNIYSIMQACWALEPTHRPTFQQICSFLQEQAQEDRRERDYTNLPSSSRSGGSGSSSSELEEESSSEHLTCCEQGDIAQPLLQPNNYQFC

| Compound | IC50 (Aurora kinase B) [nM] | bioavailability [1] [%] | IC50 [2] [nM] | Stability [3] [days] | inhibition [4] | IC50 [5] [nM] | IC50 [6] [nM] | IC50 [7] [nM] | inhibition [8] |
| --- | --- | --- | --- | --- | --- | --- | --- | --- | --- |
| COc1cccc(NC(=O)Cn2cc(Nc3ncnc4cc(OC)c(OC)cc34)cn2)c1 | > 10 | < 20 | 10 | 0.1 | Active | > 900 | 25 | > 20 |  |
| COc1cccc(NC(=O)Cn2cc(Oc3ccnc4cc(OC)c(C#N)cc34)cn2)c1 |  | < 20 | 2 | 0.1 | Active | 50 | 282 | 40 |  |
| COc1cccc(NC(=O)Cn2cc(Oc3ncnc4cc(OC)c(OC)cc34)cn2)c1 |  | < 20 | 0.8 | 0.1 | Active | 10 | 0.4 | 2 |  |
| COc1cccc(NC(=O)Cn2cc(Oc3ccnc4cc(OC)c(OC)cc34)cn2)c1 |  | < 20 | 2 | 0.1 | Active | 40 | 57 | 20 |  |
| COc1cc2ncnc(Oc3ccc(CC(=O)Nc4cnn(C)c4)cc3)c2cc1OC |  |  | 40 |  | Active | > 1000 | 667 | 80 |  |
| COc1cc2ncnc(Oc3cnn(CC(=O)Nc4ccc(N(C)C)cn4)c3)c2cc1OC |  | < 20 | 3 | 0.1 | Active | 20 | 39 | 3 |  |
| COc1cc2ncnc(Nc3cnn(CC(=O)Nc4cccc(F)c4)c3)c2cc1OC | < 0.2 | < 20 | 10 | 0.1 | Active | > 1000 | 51 | 4 |  |
| COc1cccc(C(=O)NCc2ccc(Oc3ncnc4cc(OC)c(OC)cc34)cc2)c1 |  |  | 300 |  | Active | > 1000 | 6140 | > 1000 |  |
| COc1cccc(COc2ccc(Oc3ncnc4cc(OC)c(OC)cc34)cc2)c1 |  |  | 20 |  | Active | 300 | 128 | 20 |  |
| COc1cccc(NC(=O)Cn2cc(Oc3ncnc4cc(OCCN5CCCC5)c(OC)cc34)cn2)c1 |  | < 20 | 1 | 0.1 | Active | 30 | 7 | 5 |  |
| COc1cccc(NC(=O)Cn2cc(Oc3ncnc4cc(OC)cc(OC)c34)cn2)c1 |  | < 20 | 2 | 0.1 | Active | 100 | 30 | 5 |  |
| COc1cc2ncnc(Oc3ccc(CC(=O)Nc4cn[nH]c4)cc3)c2cc1OC |  |  | > 2000 |  | Active | > 1000 | > 10000 | > 800 |  |
| CCc1cc(NC(=O)Cc2ccc(Oc3ncnc4cc(OC)c(OC)cc34)cc2)n[nH]1 |  |  | 4 |  | Active | > 600 | < 5 | 5 |  |
| COc1cccc(S(=O)(=O)NCc2ccc(Oc3ncnc4cc(OC)c(OC)cc34)cc2)c1 |  |  | > 1000 |  | Active | > 1000 | > 10000 | > 1000 |  |
| COc1cccc(NC(=O)Cc2ccc(Nc3ncnc4cc(OC)c(OC)cc34)cc2)c1 |  |  | 10 |  | Active | > 1000 | 175 | > 60 |  |
| COCCOc1cc2c(Oc3cnn(CC(=O)Nc4cccc(OC)c4)c3)ncnc2cc1OC |  | < 20 | 2 | 0.1 | Active | 90 | < 5 | 3 |  |
| CCn1ccc(NC(=O)Cc2ccc(Oc3ncnc4cc(OC)c(OC)cc34)cc2)n1 |  |  | 10 |  | Active | > 1000 | 172 | 20 |  |
| COc1cccc(CC(=O)Nc2ccc(Oc3ncnc4cc(OC)c(OC)cc34)cc2)c1 |  |  | 4 |  | Active | 30 | 209 | 10 |  |
| COc1cccc(CNC(=O)c2ccc(Oc3ncnc4cc(OC)c(OC)cc34)cc2)c1 |  |  | 700 |  | Active | > 1000 | 3060 | > 400 |  |
| COc1cc2ncnc(Nc3cnn(CC(=O)Nc4ccc(N(C)C)cn4)c3)c2cc1OC |  | < 20 | > 200 | 0.1 | Active | > 1000 | 453 | 10 |  |
| CCn1cc(NC(=O)Cn2cc(Oc3ncnc4cc(OC)c(OC)cc34)cn2)cn1 |  | < 20 | 4 | 0.1 | Active | 200 | 35 | 4 |  |
| CCn1cc(NC(=O)Cc2ccc(Oc3ccnc4cc(OC)c(OC)cc34)cc2)cn1 |  |  | 0.4 |  | Active | 40 | 12 | 4 |  |
| CCn1cc(NC(=O)Cc2cc(Oc3ccnc4cc(OC)c(OC)cc34)n[nH]2)cn1 |  |  | > 1000 |  | Active | > 1000 | > 10000 | > 1000 | inactive |
| COc1cccc(NC(=O)Cc2cccc(Oc3ncnc4cc(OC)c(OC)cc34)c2)c1 |  |  | 300 |  | Active | > 1000 | 1010 | > 1000 |  |
| COc1cccc(NC(=O)Cc2ccc(Oc3ncnc4cc(OC)c(OC)cc34)cc2)c1 |  |  | 0.9 |  | Active | 300 | 8 | 7 |  |
| COc1cc2ncnc(Nc3cnn(CC(=O)Nc4ccc(N(C)C)cc4)c3)c2cc1OC | > 10 | < 20 | 6 | 0.1 | Active | 600 | 101 | 4 |  |
| COc1cc2ncnc(Oc3ccc(CC(=O)Nc4ccc(N(C)C)cn4)cc3)c2cc1OC |  |  | 5 |  | Active | 600 | 22 | 9 |  |
| COCCOc1cc2ncnc(Oc3cnn(CC(=O)Nc4cccc(OC)c4)c3)c2cc1OC |  | < 20 | 0.3 | 0.1 | Active | 8 | 0.2 | 2 |  |
| COc1cccc(NC(=O)NCc2ccc(Oc3ncnc4cc(OC)c(OC)cc34)cc2)c1 |  |  | 9 |  | Active | > 1000 | 177 | 8 |  |
| CCn1cc(NC(=O)Cc2ccc(Oc3ncnc4cc(OC)c(OC)cc34)cc2)cn1 |  |  | 3 |  | Active | > 800 | 29 | 10 |  |
